Data on one molecule can be found in patent US11033518B2, “Pharmaceutical composition containing niclosamide for treating axin-GSK3 interaction-related diseases” (BAOBAB PHARM CO., LTD., priority 2017, dated 2021).

One test relates to Snail expression by CagA. Nature of the test: Snail expression induced by CagA in the 293 cell. Format: cell-based. From the text: (§1) In view of the results of Examples 2˜5 that niclosamide inhibited Wnt activity and EMT through Axin-GSK3 inhibition, and that CagA of Helicobacter (Helicobacter pylori) bound to GSK-3 similarly to Axin, the effect of GSK-3 binding and Snail induction by CagA of Helicobacter pylori by niclosamide was confirmed. It was confirmed that binding of CagA and GSK3 was inhibited by niclosamide similarly to Axin 2, when examining with immunoprecipitation after adding various amounts of niclosamide to this sample (FIG. 10A). In addition, it could be seen that Snail expression by CagA was inhibited when treating niclosamide after inducing CagA and Snail expression in the 293 cell (FIG. 10B). Through such a result, it could be seen that niclosamide inhibited the function of CagA performing function similar to Axin and thereby inhibited gastric cancer occurrence and inflammation by Helicobacter.

Another test relates to beta-catenin (β-catenin). Kind of test: beta-catenin western blot in colorectal cancer cells. In kind it is cell-based. The settings on record: 0, 0.125, 0.25, 0.5 nM, 24 hours; as concentration increased. The procedure:
At first, after treating niclosamide of nM units at concentrations of 0 nM, 0.125 nM, 0.25 nM and 0.5 nM to colorectal cancer cells for 24 hours, the beta-catenin (β-catenin) activity and TCF/LEF reporter (Topflash) activity of colorectal cancer cells were measured.
For beta-catenin, western blot was performed using β-catenin (#610154, BD Transduction, 1:5,000) antibody, and as a result, as shown in B (left) of FIG. 1, expression of beta-catenin in colorectal cancer cells was reduced as the concentration of treated niclosamide was increased.
A general note: A western blot detects proteins with antibodies after separation by electrophoresis.

Test [1] deals with GSK3, β-catenin and Snail. Kind of test: Immunoblotting of nucleo-cytoplasm fractions of colorectal cancer cells. Format: cell-based. The following applies: 0.25 nM, 24 hours, HCT116, SW480 and DLD-1. The procedure:
After treating niclosamide of 0.25 nM to colorectal cancer cell lines HCT116, SW480 and DLD-1 cells for 24 hours, the amount of GSK3, β-catenin and Snail of nucleo-cytoplasm fractions was analyzed by immunoblotting.
The amount of Snail and GSK3 protein in cells was confirmed by separating nuclei and cytoplasm in the hypotonic solution (Kim N H, et al., Sci Signal. 4:ra71, 2011; Yook J I, et al. Nat Cell Biol., 8:[…], 2006). Briefly, after collecting colorectal cancer cells (1×10^6 cells) in a centrifugation tube, they were washed with PBS and were treated with the hypotonic solution (10 mM HEPES, pH7.9; 10 mM KCl; 1 mM DTT with protease inhibitors) 400 μl on ice for 5 minutes. The cell membrane was degraded by addition of 10% NP-40, and the final concentration was adjusted to 0.6% final concentration, and then was mixed well and high-speed centrifugation was conducted for 30 seconds. The cytoplasmic resolvents were separated and nuclear precipitates were washed with cold PBS twice. The nucleoprotein was extracted by treating hypertonic buffer (20 mM HEPES, pH7.9; 0.4 M NaCl; 1 mM DTT with protease inhibitors) on ice for 15 minutes, and then high-speed centrifugation was conducted, and the amount of GSK3, β-catenin and Snail of nucleo-cytoplasm fractions was analyzed by immunoblotting.

In test [2] the target is Helicobacter pylori CagA - GSK3 binding (Homo sapiens, UniProt P49841). Nature of the test: Immunoprecipitation of CagA and GSK3. The settings on record: various amounts.
Excerpt: as §1

Another test addresses T1, Axin2-GSK3 complex (Homo sapiens, UniProt P49841).
T1 construct: Triton X-100 lysates of total cells; endogenous in cells; host or cells: MCF-7 cells; GSK3 is endogenous; His-tagged Axin2 comes from a transfected doxycycline-inducible vector
Nature of the test: Immunoprecipitation of His-tagged Axin2 from MCF-7 cell lysates. Format: binding. The settings on record: total cell lysates of MCF-7 expressing His-tagged Axin2. The procedure: In order to confirm whether niclosamide could inhibit Axin-GSK3 interaction, to perform an immunoprecipitation experiment under the condition with or without niclosamide, cell lysates having full-length Axin2 were investigated.
The immunoprecipitation assay was performed as follows (Yook J I, et al. Nat Cell Biol. 8:1398-1406, 2006).
The doxycycline-induced His-tagged Axin2 expression vector was transformed to MCF-7 cell (ATCC, American Type Culture Collection) and was cultured, and was reacted by treating […] (Invitrogen) and niclosamide of each concentration to Triton X-100 lysates of total cells. The protein recovered in beads was subjected to SDS-PAGE, followed by immunoblot analysis, and a control group of 1/20 volume was added.

The subject of another test is HCT116 and SW480 cells. Kind of test: Tumor growth of HCT116 and SW480 cells injected into nude mice. The settings on record: intraperitoneal administration daily. In kind it is in vivo. The protocol:
Next, the effect of niclosamide having tumor formation potential in vivo experiment of HCT116 and SW480 cells was investigated.
Colorectal cancer cell lines HCT116 (5×10^6 cells) and SW480 (5×10^6 cells) were mixed in 100 μl PBS and were injected into flank subcutaneous tissues in female athymic nude mice (6 weeks old). Mice were randomly assigned to two groups and a vehicle and niclosamide were intraperitoneally injected daily and they were treated for […]. Niclosamide was dissolved with 10% Cremophor EL (BASF) and 0.9% NaCl and then was intraperitoneally injected. After injection of colorectal cancer cells, mice were observed daily and the weight change was measured twice a week. In addition, when a tumor was observed, it was measured with calipers. The tumor size was calculated by the equation (LXW2)/2. Herein, L is a long diameter of the tumor and W is a short diameter.

SMILES strings stand for the structures.

Sequence of Helicobacter pylori CagA - GSK3 binding (P49841 whole entry): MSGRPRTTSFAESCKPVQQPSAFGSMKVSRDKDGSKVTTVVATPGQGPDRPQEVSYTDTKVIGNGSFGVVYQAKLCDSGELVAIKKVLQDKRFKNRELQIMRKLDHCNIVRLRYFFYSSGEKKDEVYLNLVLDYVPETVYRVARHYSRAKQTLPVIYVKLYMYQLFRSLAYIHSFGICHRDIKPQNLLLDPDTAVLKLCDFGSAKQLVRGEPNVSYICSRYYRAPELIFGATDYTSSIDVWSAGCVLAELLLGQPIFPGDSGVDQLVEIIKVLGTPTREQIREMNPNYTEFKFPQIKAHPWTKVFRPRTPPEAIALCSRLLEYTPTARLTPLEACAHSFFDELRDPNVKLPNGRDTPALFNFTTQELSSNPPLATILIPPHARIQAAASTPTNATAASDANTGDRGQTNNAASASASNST
T1 sequence (P49841 whole entry, one chain of several): as the sequence (P49841 whole entry) above

On to `O=C(Nc1ccc([N+](=O)[O-])cc1Cl)c1cc(Cl)ccc1O` [niclosamide], for which the “Snail expression by CagA” value in the test with Snail expression by CagA is on record as “inhibited”. Besides, in the test with beta-catenin (β-catenin), the expression of beta-catenin result is “reduced”. In test [1], the GSK3 of nuclei entry was “increased”, the “amount of Snail” value is “reduced” and the amount of beta-catenin result is “reduced”. Also, the “binding of CagA and GSK3” value in test [2] is reported as “inhibited”. The “GSK3 which bound to Axin2” value on Axin2-GSK3 complex is given as “reduced”. Further, the “tumor growth of colorectal cancer cells” value in the test on HCT116 and SW480 cells is reported as “significantly inhibited”.
